The target of experiment [1] is truncated human beta-secretase, BACE1 (amino acids 1-454) (Homo sapiens (Human), UniProt P56817). Briefly: BACE1 Assay (Assay 1), fluorescence quench assay. In kind it is biochemical. Conditions: Table 1; pH 4.4, 1 μM substrate peptide; read-out: BACE 1 IC50 nM (Assay 1). On the procedure: The substrate was dissolved at 1 mg/ml in DMSO.
The assay was performed in the presence of OptiMEM™ (supernatant collected over 24 h and cleared from cellular debris by centrifugation) containing the ectodomain of BACE1, 25 μl water containing the desired 2-fold concentration of test compound and 2% DMSO, 1 μM substrate peptide, 20 mM NaOAc, pH 4.4, and 0.04% Triton-X100 in a total assay volume of 50 μl in a 384 well plate. In general, 25 μl of compound dilution were added to the plate followed by the addition of 10 μl of BACE1 containing OptiMEM™ diluted 1:10 in water with 0.2% Triton X-100. The reaction was started with the addition of 15 μl substrate in NaOAc buffer. The reaction was incubated at rt (dark) in an Envision® multilabel reader (Perkin Elmer) and the cleavage of the substrate was recorded as kinetic for 60 min at ex: 485 nm, em: 538 nm. Blank wells containing no enzyme were included on each plate.
The intensity of fluorescence was regressed against time in order to derive velocities of reaction in all 384 wells. These velocities were used for calculating percent control using an uninhibited control containing 1% DMSO as 100% and a blank control performed in the absence of enzyme as 0%. IC50 values were calculated by fitting percent control vs. test compound concentration using Assay Explorer®.

Experiment [2] concerns Abeta1-x production in H4 neuroglioma cell line stably expressing human APP. Briefly: H4-APPwt Cell-Based Assay (Assay 2), production of Abeta1-x peptides. To be noted: Table 1; H4 cells expressing human APP, Abeta1-x by AlphaLISA, 18 h. On the procedure: Cellular potency of the compounds was assessed in an assay monitoring production of Abeta1-x peptides in the H4 neuroglioma cell line (ATCC, Cat. #HTB-148) stably expressing human APP. Tested compounds were dissolved in DMSO and pre-diluted in the culture medium (DMEM containing 10% FBS and 1% penicillin/streptomycin) to achieve twice the final concentration of the compounds in the assay. Equal volumes of the 2× solutions of the tested compounds and cell suspension were added to a 96-well culture plate, so that each well contained ˜10,000 cells in a final volume of 200 μl. Final concentration of DMSO in the assay was 0.2%. The plates were incubated for 5 h at 37° C., 5% CO2 to allow cells to attach to the bottom of the wells in the presence of the tested compounds. The media was removed and replaced with fresh media containing tested compounds at the same final concentration. The plates were incubated for 18 h at 37° C., 5% CO2. Concentrations of Ab1-x were determined using AlphaLISA immunoassay (PerkinElmer, Cat. # AL288) following the manufacturer's protocol. Concentrations of Abeta1-x in the wells containing either DMSO or 10 μM beta-secretase inhibitor (BACE inhibitor IV, EMD Bioscience, Cat. #565788) were used as uninhibited and background controls, respectively, for calculating percent inhibition values for each well with the tested compounds.

Data on 7 compounds can be found in patent publication US9290477B2, “Inhibitors of β-secretase” (Vitae Pharmaceuticals, Inc., priority 2012, dated 2016).

Molecules are shown by their SMILES.

Chain of truncated human beta-secretase, BACE1 (amino acids 1-454) (P56817 22-454): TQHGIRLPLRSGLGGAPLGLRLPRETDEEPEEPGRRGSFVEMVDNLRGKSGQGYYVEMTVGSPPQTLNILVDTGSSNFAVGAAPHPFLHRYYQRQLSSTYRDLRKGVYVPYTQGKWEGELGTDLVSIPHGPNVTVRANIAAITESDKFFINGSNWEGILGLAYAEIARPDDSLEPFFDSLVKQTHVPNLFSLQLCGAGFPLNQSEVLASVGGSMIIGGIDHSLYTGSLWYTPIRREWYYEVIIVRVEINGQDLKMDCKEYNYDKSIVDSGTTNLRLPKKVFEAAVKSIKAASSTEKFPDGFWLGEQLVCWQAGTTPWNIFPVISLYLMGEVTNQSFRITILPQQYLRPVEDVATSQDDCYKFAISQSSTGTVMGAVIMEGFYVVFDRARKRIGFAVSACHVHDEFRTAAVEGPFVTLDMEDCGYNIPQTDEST

In the case of `CO[C@H]1[C@H](C)C[C@@]2(Cc3ccc(Br)cc3[C@@]23N=C(C)C(N)=N3)C[C@@H]1C` [Example 1], the 50% inhibitory concentration (IC50) in experiment [1] was determined as 4 nM; in experiment [2] it was 4.5 nM. Taken in the same sequence, the figures for `CO[C@H]1[C@H](C)C[C@@]2(Cc3ccc(C#N)cc3[C@@]23N=C(C)C(N)=N3)C[C@@H]1C` [Example 2] were 3.5 nM and 4 nM.

Turning to `CC1=N[C@]2(N=C1N)c1cc(C#N)ccc1C[C@@]21C[C@@H](C)[C@H](O)[C@@H](C)C1` [Example 3], the concentration for half-maximal inhibition (IC50) was 37 nM in experiment [1] and 34 nM in experiment [2]. The compound `CO[C@H]1CC[C@@]2(Cc3ccc(Br)cc3C23N=C(C)C(N)=N3)C[C@@H]1C` (stereo partly shown) [Example 4] returned an IC50 in experiment [2] of 6.2 nM.

As for `CO[C@H]1CC[C@@]2(Cc3ccc(C#N)cc3[C@@]23N=C(C)C(N)=N3)C[C@@H]1C` [Example 5], the figures for the half-inhibitory concentration (IC50) in experiment [1] and in experiment [2] were 1.5 nM and 2 nM, respectively. Taken in the same sequence, the figures for `CO[C@H]1[C@H](C)C[C@@]2(Cc3ccc(-c4cncc(F)c4)cc3[C@@]23N=C(C)C(N)=N3)C[C@@H]1C` [Example 6] were 1.5 nM and 0.6 nM.

In the case of `CC#Cc1cncc(-c2ccc3c(c2)[C@@]2(N=C(C)C(N)=N2)[C@@]2(C3)C[C@@H](C)[C@H](OC)[C@@H](C)C2)c1` [Example 7], the IC50 in experiment [1] is 8.2 nM; in experiment [2], 4 nM.

For orientation: IC50 means the concentration that gives 50% inhibition.
